Here are results for seven compounds from ChEMBL document CHEMBL3603783, “Monoterpene indole alkaloid hydrazone derivatives with apoptosis inducing activity in human HCT116 colon and HepG2 liver carcinoma cells” (2015).

The source made the active and inactive calls. The calls are words filed in the database; no cut-off is given here.

Assay [1] relates to HepG2. Description: Induction of apoptosis in human HepG2 cells assessed as change in nuclear morphology at 25 to 50 uM after 24 hrs by Hoechst staining-based fluorescence microscopic analysis. It is filed as functional, cell-based.
Assay [2] has as its system HCT-116. Description: Cytotoxicity against human HCT116 cells assessed as reduction in cell viability at 5 to 50 uM after 72 hrs by MTS assay. The format is functional, cell-based. Background: Tetrazolium dyes change colour on reduction, which living cells bring about.
For assay [3], the system named is HCT-116. The assay is described as follows: Induction of apoptosis in human HCT116 cells at 5 to 50 uM after 72 hrs by Guava ViaCount flow cytometric analysis. The format is functional, cell-based. (In general: A flow cytometer gives signals particle by particle.)
Assay [4] concerns HCT-116. Description: Induction of apoptosis in human HCT116 cells assessed as change in nuclear morphology at 25 to 50 uM after 24 hrs by Hoechst staining-based fluorescence microscopic analysis. It is filed as functional, cell-based.
Assay [5] has as its system HepG2. The assay is described as follows: Cytotoxicity against human HepG2 cells assessed as reduction in cell viability at 5 to 50 uM after 72 hrs by MTS assay. The format is functional, cell-based.
For assay [6], the system named is HepG2. Description: Induction of apoptosis in human HepG2 cells at 5 to 50 uM after 72 hrs by Guava ViaCount flow cytometric analysis. The format is functional, cell-based.
The subject of assay [7] is HepG2. Description: Cytotoxicity against human HepG2 cells assessed as reduction in cell viability at 50 uM after 72 hrs by MTS assay relative to control. It is filed as functional.
Assay [8] relates to HCT-116. The assay is described as follows: Cytotoxicity against human HCT116 cells assessed as reduction in cell viability at 50 uM after 72 hrs by MTS assay relative to control. It is filed as functional.
Assay [9] has as its system HepG2. The assay is described as follows: Induction of apoptosis in human HepG2 cells assessed as increase in caspase-3/7 activity at 25 to 50 uM after 24 hrs by caspase-Glo 3/7 assay. The format is functional, cell-based.
The test system of assay [10] is HepG2. The assay is described as follows: Cytotoxicity against human HepG2 cells assessed as reduction in cell viability at 25 uM after 72 hrs by MTS assay relative to control. The format is functional.
For assay [11], the system named is HepG2. The assay is described as follows: Induction of apoptosis in human HepG2 cells at 50 uM after 72 hrs by Guava ViaCount flow cytometric analysis relative to control. It is filed as functional.
The subject of assay [12] is HCT-116. The assay is described as follows: Induction of apoptosis in human HCT116 cells at 25 uM after 72 hrs by Guava ViaCount flow cytometric analysis relative to control. The format is functional.
Assay [13] relates to HCT-116. The assay is described as follows: Induction of apoptosis in human HCT116 cells assessed as increase in caspase-3/7 activity at 25 to 50 uM after 24 hrs by caspase-Glo 3/7 assay. The format is functional, cell-based.
Assay [14] has as its system HepG2. The assay is described as follows: Induction of apoptosis in human HepG2 cells at 25 uM after 72 hrs by Guava ViaCount flow cytometric analysis relative to control. It is filed as functional.
Assay [15] deals with HCT-116. Description: Induction of apoptosis in human HCT116 cells at 50 uM after 72 hrs by Guava ViaCount flow cytometric analysis relative to control. The format is functional.
Assay [16] concerns HCT-116. The assay is described as follows: Cytotoxicity against human HCT116 cells assessed as reduction in cell viability at 25 uM after 72 hrs by MTS assay relative to control. It is filed as functional.
The subject of assay [17] is HepG2. The assay is described as follows: Induction of apoptosis in human HepG2 cells assessed as change in nuclear morphology at 25 uM after 24 hrs by Hoechst staining-based fluorescence microscopic analysis relative to vehicle-treated control. It is filed as functional.
Assay [18] has as its system HCT-116. The assay is described as follows: Cytotoxicity against human HCT116 cells assessed as reduction in cell viability at 10 uM after 72 hrs by MTS assay relative to control. It is filed as functional.
Assay [19] concerns HepG2. Description: Induction of apoptosis in human HepG2 cells assessed as change in nuclear morphology at 25 uM after 24 hrs by Hoechst staining-based fluorescence microscopic analysis relative to 5-FU. The format is functional.
In assay [20] the test system is HCT-116. Description: Induction of apoptosis in human HCT116 cells assessed as change in nuclear morphology at 25 uM after 24 hrs by Hoechst staining-based fluorescence microscopic analysis relative to 5-FU. It is filed as functional.
Assay [21] has as its system HCT-116. Description: Induction of apoptosis in human HCT116 cells assessed as change in nuclear morphology at 25 uM after 24 hrs by Hoechst staining-based fluorescence microscopic analysis relative to vehicle-treated control. It is filed as functional.

Turning to `O=c1[nH]cc(F)c(=O)[nH]1`, the outcome with HepG2 [1], in the assay with HCT-116 [2], in the assay with HCT-116 [3], with HCT-116 [4], in the assay on HepG2 [5] and in the assay on HepG2 [6] was Active.
In the case of `CC[C@@H]1CN(C)[C@H]2Cc3c([nH]c4ccccc34)C(=O)C[C@@H]1[C@H]2C(=O)OC`, the outcome in the assay on HepG2 [7], in the assay with HCT-116 [3], with HCT-116 [8] and in the assay on HepG2 [6] was inactive.
Turning to `CC[C@H]1CN(C)[C@H]2Cc3c([nH]c4ccccc34)C(=O)C[C@H]1[C@@H]2C(=O)OC`, the result in the assay on HepG2 [7], in the assay with HCT-116 [3], in the assay with HCT-116 [8] and in the assay on HepG2 [6] was inactive.
Regarding `CC[C@@H]1CN(C)[C@H]2Cc3c([nH]c4ccccc34)/C(=N/Nc3ccccc3)C[C@H]1[C@@H]2C(=O)OC`, the result with HepG2 [9], with HCT-116 [13], with HepG2 [1] and in the assay on HCT-116 [4] was Active. For the same compound, the Activity in the assay on HepG2 [10] is on record as 60%; in the assay with HepG2 [11], 95%; with HCT-116 [12] it was 35%; in the assay on HepG2 [7] it was >95%; in the assay with HepG2 [14], 90%; in the assay with HCT-116 [15] it was 95%. For the same compound, the Activity with HCT-116 [8] is given as >95%.
`CC[C@H]1CN(C)[C@H]2Cc3c([nH]c4ccccc34)/C(=N/Nc3ccc(Br)cn3)C[C@H]1[C@@H]2C(=O)OC`: the outcome in the assay with HepG2 [9] and with HCT-116 [13] was Active. Further, the Activity with HCT-116 [16] was >95%; in the assay on HepG2 [10] it was >95%; in the assay on HCT-116 [12], 95%; in the assay with HepG2 [14] it was 95%; in the assay on HCT-116 [18], 75%. Besides, the “fold change (FC)” value is given as 5.5 in the assay on HepG2 [17], 2.7 in the assay on HepG2 [19], 4 with HCT-116 [20] and 4 in the assay with HCT-116 [21].
Regarding `CC[C@H]1CN(C)[C@H]2Cc3c([nH]c4ccccc34)/C(=N/Nc3ccccc3)C[C@H]1[C@@H]2C(=O)OC`, the outcome in the assay on HepG2 [7] and in the assay with HCT-116 [8] was inactive.
As to `CC[C@@H]1CN(C)[C@H]2Cc3c([nH]c4ccccc34)/C(=N/Nc3ccc(Br)cn3)C[C@H]1[C@@H]2C(=O)OC`, the outcome in the assay on HepG2 [9] and with HCT-116 [13] was Active. For the same compound, the Activity is given as >95% with HCT-116 [16], >95% in the assay on HepG2 [10], 95% in the assay on HepG2 [11] and 95% in the assay on HCT-116 [15]. Besides, the “fold change (FC)” value is 4 in the assay with HepG2 [17], 2 with HepG2 [19], 2 with HCT-116 [20] and 2 in the assay on HCT-116 [21].
